{
  "source": "patent EP2805705B1",
  "about": "“Packaging with one or more administration units comprising a sodium salt of (R)-3-[6-amino-pyridin-3-yl]-2-(1-cyclohexyl-1 H-imidazol-4-yl)-propionic acid” (IP Gesellschaft für Management mbH, priority 2013, dated 2014)",
  "format_in_all_cases": "physicochemical",
  "key": {"[1]": {"assay": "Dynamic vapor sorption (DVS), SPS11-10µ, one cycle at 25 °C", "details": "DVS isotherm at 25 °C", "method": "(§1) Example 7: Dynamic vapor sorption (DVS) of (R)-3-[6-amino-pyridin-3-yl]-2-(1-cyclohexyl-1 H-imidazol-4-yl)-propionic acid sodium salt monohydrate: Moisture sorption/desorption isotherms were recorded on a SPS11-10µ from Projekt Messtechnik (Ulm, Germany). One cycle was run at 25 °C, in which the sample was first stepwise decreased to 0% RH and then the relative humidity was stepwise increased from 0 to 95% and the weight of the sample was measured. Typical total measurement times for both cycles were about 20 to 30 hours. The measured data for the (R)-3-[6-amino-pyridin-3-yl]-2-(1-cyclohexyl-1 H-imidazol-4-yl)-propionic acid sodium salt monohydrate as prepared in Examples 2 or 3 are shown in the following table: DVS Isotherm at 25 °C:\nExample 12: DVS, Comparison Experiment: (R)-3-[6-amino-pyridin-3-yl]-2-(1-cyclohexyl-1 H-imidazol-4-yl)-propionic acid as prepared in Example 1 was used for the measurement. The measurement was performed as disclosed in Example 7 with (R)-3-[6-amino-pyridin-3-yl]-2-(1-cyclohexyl-1 H-imidazol-4-yl)-propionic acid (free acid, amorphous) and the received data are shown in the following table: DVS Isotherm at 25 °C\nas §1, with “(DVS):” for “(DVS) of (R)-3-[6-amino-pyridin-3-yl]-2-(1-cyclohexyl-1 H-imidazol-4-yl)-propionic acid sodium salt monohydrate:”, “Room humidity (RH)” for “RH”, “dihydrate” for “monohydrate”, “Example” for “Examples 2 or”, “isotherm” for “Isotherm”, “25°C:” for “25 °C:”\nExample 9: DVS, Comparison Experiment: (R)-3-[6-amino-pyridin-3-yl]-2-(1-cyclohexyl-1 H-imidazol-4-yl)-propionic acid as prepared in Example 1 was used for the measurement. The measurement was performed as disclosed in Example 7 with (R)-3-[6-amino-pyridin-3-yl]-2-(1-cyclohexyl-1 H-imidazol-4-yl)-propionic acid (free acid, amorphous) and the received data are shown in the following table: DVS Isotherm at 25 °C"}, "[2]": {"assay": "Determination of solubility in a mixture of acetone and water (4:1, by volume)", "details": "for Solubility [g in 100 g of solvent]: acetone and water (4:1, by volume); for solubility compared with polymorph 1: result in words", "method": "Determination of solubility: For the determination of the solubility in a mixture of acetone and water (4:1, by volume), samples of 0.5 mg to 50 mg of the test substances were suspended in a defined amount of the solvent (800 mg to 1200 mg) in screw cap vials with a magnetic stirring bar, which were placed in a temperature-controlled multiple stirring device equipped for transmission measurement (Avantium Crystal 16). With stirring at 700 rpm, the vials were cooled from room temperature to 0 °C and then heated to 60 °C with a heating rate of 3 °C/h, kept at 60 °C for 2 h and cooled again to 0 °C with a cooling rate of 3 °C/h. By means of transmission measurement it was determined whether the sample was dissolved (100 % transmission), or crystals were present. For polymorph 1 ({drug5b}), polymorph 2 ({drug5c}), hydrate 1 ({drug5e}) and hydrate 2 ({drug5f}) of compound (V) the following solubilities in a mixture of acetone and water (4:1, by volume) were determined."}, "[3]": {"assay": "Dynamic vapor sorption (DVS), DVS-1 instrument, two cycles at 25 °C", "details": "for weight increase in the sorption step: 25 °C"}},
  "data": [
    {"molecule": "Nc1ccc(C[C@@H](C(=O)[O-])c2cn(C3CCCCC3)cn2)cn1.O.[Na+]", "note": "[(R)-3-[6-amino-pyridin-3-yl]-2-(1-cyclohexyl-1 H-imidazol-4-yl)-propionic acid sodium salt monohydrate]", "values": [
      {"measurement": "Change In Mass (%) Desorption", "setting": "[1]; Target RH 0.2 %", "value": -4.4, "unit": "%"},
      {"measurement": "Change In Mass (%) Desorption", "setting": "[1]; Target RH 10.0 %", "value": -0.6, "unit": "%"},
      {"measurement": "Change In Mass (%) Sorption", "setting": "[1]; Target RH 10.0 %", "value": -3.7, "unit": "%"},
      {"measurement": "Change In Mass (%) Desorption", "setting": "[1]; Target RH 20.0 %", "value": -0.1, "unit": "%"},
      {"measurement": "Change In Mass (%) Sorption", "setting": "[1]; Target RH 20.0 %", "value": -0.2, "unit": "%"},
      {"measurement": "Change In Mass (%) Sorption", "setting": "[1]; Target RH 30.0 %", "value": 0.2, "unit": "%"},
      {"measurement": "Change In Mass (%) Desorption", "setting": "[1]; Target RH 30.1 %", "value": 0.1, "unit": "%"},
      {"measurement": "Change In Mass (%) Sorption", "setting": "[1]; Target RH 40.0 %", "value": 0.6, "unit": "%"},
      {"measurement": "Change In Mass (%) Sorption", "setting": "[1]; Target RH 50.0 %", "value": 0.9, "unit": "%"},
      {"measurement": "Change In Mass (%) Sorption", "setting": "[1]; Target RH 60.0 %", "value": 1.5, "unit": "%"},
      {"measurement": "Change In Mass (%) Sorption", "setting": "[1]; Target RH 70.0 %", "value": 4.0, "unit": "%"},
      {"measurement": "Change In Mass (%) Sorption", "setting": "[1]; Target RH 75.0 %", "value": 8.2, "unit": "%"},
      {"measurement": "Change In Mass (%) Sorption", "setting": "[1]; Target RH 80.1 %", "value": 11.9, "unit": "%"},
      {"measurement": "Change In Mass (%) Sorption", "setting": "[1]; Target RH 85.1 %", "value": 17.7, "unit": "%"},
      {"measurement": "Change In Mass (%) Sorption", "setting": "[1]; Target RH 90.0 %", "value": 38.2, "unit": "%"},
      {"measurement": "Change In Mass (%) Sorption", "setting": "[1]; Target RH 94.9 %", "value": 67.4, "unit": "%"}
    ]},
    {"molecule": "CNc1nccc(-c2cc3cc(C(=O)N[C@@H](CN(c4ccccc4)c4ncccn4)C(N)=O)ccc3[nH]2)n1.O.O", "note": "[Hydrate 1, 2-(2-methylamino-pyrimidin-4-yl)-1 H-indole-5-carboxylic acid [(S)-1-carbamoyl-2-(phenyl-pyrimidin-2-yl-amino)-ethyl]-amide dihydrate]", "values": [
      {"measurement": "Solubility [g in 100 g of solvent]", "setting": "[2]; Temperature 38.6 °C", "value": "2.11 g in 100 g of solvent"},
      {"measurement": "Solubility [g in 100 g of solvent]", "setting": "[2]; Temperature 49.7 °C", "value": "3.39 g in 100 g of solvent"},
      {"measurement": "Solubility [g in 100 g of solvent]", "setting": "[2]; Temperature 57.4 °C", "value": "5.04 g in 100 g of solvent"},
      {"measurement": "solubility compared with polymorph 1", "setting": "[2]", "value": "higher solubility than polymorph 1"},
      {"measurement": "hygroscopicity", "setting": "[3]; result in words", "value": "low hygroscopicity"}
    ]},
    {"molecule": "CNc1nccc(-c2cc3cc(C(=O)N[C@@H](CN(c4ccccc4)c4ncccn4)C(N)=O)ccc3[nH]2)n1.O.O.O.O.O.O", "note": "[Hydrate 2, 2-(2-methylamino-pyrimidin-4-yl)-1 H-indole-5-carboxylic acid [(S)-1-carbamoyl-2-(phenyl-pyrimidin-2-yl-amino)-ethyl]-amide hexahydrate]", "values": [
      {"measurement": "Solubility [g in 100 g of solvent]", "setting": "[2]; Temperature 36.8 °C", "value": "0.50 g in 100 g of solvent"},
      {"measurement": "Solubility [g in 100 g of solvent]", "setting": "[2]; Temperature 46.1 °C", "value": "1.02 g in 100 g of solvent"},
      {"measurement": "Solubility [g in 100 g of solvent]", "setting": "[2]; Temperature 55.9 °C", "value": "2.61 g in 100 g of solvent"},
      {"measurement": "solubility compared with polymorph 1", "setting": "[2]", "value": "higher solubility than polymorph 1"}
    ]},
    {"molecule": "CNc1nccc(-c2cc3cc(C(=O)N[C@@H](CN(c4ccccc4)c4ncccn4)C(N)=O)ccc3[nH]2)n1", "note": "[Polymorph 2, 2-(2-methylamino-pyrimidin-4-yl)-1 H-indole-5-carboxylic acid [(S)-1-carbamoyl-2-(phenyl-pyrimidin-2-yl-amino)-ethyl]-amide]", "values": [
      {"measurement": "Solubility [g in 100 g of solvent]", "setting": "[2]; Temperature 46.0 °C", "value": "1.02 g in 100 g of solvent"},
      {"measurement": "Solubility [g in 100 g of solvent]", "setting": "[2]; Temperature 57.5 °C", "value": "2.48 g in 100 g of solvent"},
      {"measurement": "solubility compared with polymorph 1", "setting": "[2]", "value": "higher solubility than polymorph 1"},
      {"measurement": "weight increase in the sorption step", "setting": "[3]; Relative humidity 40 %, first cycle", "value": 0.2, "unit": "%"},
      {"measurement": "weight increase in the sorption step", "setting": "[3]; Relative humidity 40 %, second cycle", "value": 0.0, "unit": "%"},
      {"measurement": "weight increase in the sorption step", "setting": "[3]; Relative humidity 60 %, first cycle", "value": 0.3, "unit": "%"},
      {"measurement": "weight increase in the sorption step", "setting": "[3]; Relative humidity 60 %, second cycle", "value": 0.1, "unit": "%"},
      {"measurement": "weight increase in the sorption step", "setting": "[3]; Relative humidity 80 %, first cycle", "value": 0.4, "unit": "%"},
      {"measurement": "weight increase in the sorption step", "setting": "[3]; Relative humidity 80 %, second cycle", "value": 0.3, "unit": "%"},
      {"measurement": "weight increase in the sorption step", "setting": "[3]; Relative humidity 95 %, first cycle", "value": 0.8, "unit": "%"},
      {"measurement": "weight increase in the sorption step", "setting": "[3]; Relative humidity 95 %, second cycle", "value": 0.6, "unit": "%"},
      {"measurement": "water uptake (hygroscopicity)", "setting": "[3]; at a high relative humidity of 80 %", "value": "about 0.4%"}
    ]}
  ]
}
